# Tests used:
# advanced NSCLC = details: cited from earlier work
# central memory T cells [1] = experiment: Cultured IFN-γ ELISPOT after 10-day in vitro stimulation of PBMC, phase 1/2 NSCLC trial of OSE-2101; type: in vivo, human; set-up: key to net SFC of vaccine positive CTL responses: —, indicates SFC response did not meet criteria and vaccine response was negative; details: for No. Positive Responses: 6 NSCLC patients
# Outline: (§1)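 Patient PBMC (pre-treatment, Week 9, Week 18, after s.c. dosing every 3 weeks) were stimulated 10 days with 10 μg/ml of each epitope plus rIL-2 10 U/ml on days 1, 4 and 7. Cells were then tested 20 h with irradiated autologous PBMC and 10 μg/ml vaccine or wild-type peptide. Net SFC per 5×10^4 cells, irrelevant HBV peptide subtracted.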
# central memory T cells [2] = experiment: Cultured IFN-γ ELISPOT after 10-day in vitro stimulation of PBMC, phase 1/2 colon cancer trial of OSE-2101; type: in vivo, human; set-up: key to net SFC of vaccine positive CTL responses: —, indicates SFC response did not meet criteria and vaccine response was negative
# Outline: as §1
# central memory T cells [3] = experiment: Central memory T cell cultured ELISPOT, phase 2 trial in advanced NSCLC; type: in vivo, human
# Outline: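 Patient PBMC were pre-stimulated for 10 days with 10 μg/ml peptide plus rIL2 (10 U/ml, days 1, 4, 7), then replated at 5×10^4/well with irradiated autologous PBMC and 10 μg/ml peptide, and SFC were counted. A response was positive if >5 SFC above, and > mean+2 SD of, the irrelevant HBV epitope, and twofold the pre-vaccination response plus 2 SD.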
compound,measurement,setting,value
C#Cc1cccc(Nc2ncnc3cc(OCCOC)c(OCCOC)cc23)c1 [Erlotinib],Progression-Free Survival (PFS),advanced NSCLC; advanced NSCLC after at least first line failure (Shepherd 2005),2.2 months
Nc1nc2[nH]cc(CCc3ccc(C(=O)N[C@@H](CCC(=O)O)C(=O)O)cc3)c2c(=O)[nH]1 [pemetrexed],median PFS,"advanced NSCLC; phase 3, second line NSCLC (Bareschino 2011)",2.9 months
SMPPPGTRV [p53.149M2 A],No. Positive Responses,central memory T cells [1]; Week 9,0
same,No. Positive Responses,central memory T cells [1]; Week 18,0
same,net SFC of vaccine positive CTL responses,"central memory T cells [1]; NSCLC patient 201, Week 9",—
same,net SFC of vaccine positive CTL responses,"central memory T cells [1]; NSCLC patient 201, Week 18",—
same,net SFC of vaccine positive CTL responses,"central memory T cells [1]; NSCLC patient 502, Week 9",—
same,net SFC of vaccine positive CTL responses,"central memory T cells [1]; NSCLC patient 502, Week 18",—
same,net SFC of vaccine positive CTL responses,"central memory T cells [1]; NSCLC patient 504, Week 9",—
same,net SFC of vaccine positive CTL responses,"central memory T cells [1]; NSCLC patient 504, Week 18",—
same,net SFC of vaccine positive CTL responses,"central memory T cells [1]; NSCLC patient 505, Week 9",—
same,net SFC of vaccine positive CTL responses,"central memory T cells [1]; NSCLC patient 505, Week 18",—
same,net SFC of vaccine positive CTL responses,"central memory T cells [1]; NSCLC patient 532, Week 9",—
same,net SFC of vaccine positive CTL responses,"central memory T cells [1]; NSCLC patient 532, Week 18",—
same,net SFC of vaccine positive CTL responses,"central memory T cells [1]; NSCLC patient 651, Week 9",—
same,net SFC of vaccine positive CTL responses,"central memory T cells [1]; NSCLC patient 651, Week 18",—
same,Mean SFC,"central memory T cells [2]; 10 colon patients, Week 9","18.0 SFC per 50,000 cells"
same,net SFC of vaccine positive CTL responses,"central memory T cells [2]; colon patient 551, Week 9",—
same,net SFC of vaccine positive CTL responses,"central memory T cells [2]; colon patient 551, Week 18",—
same,net SFC of vaccine positive CTL responses,"central memory T cells [2]; colon patient 601, Week 9",—
same,net SFC of vaccine positive CTL responses,"central memory T cells [2]; colon patient 601, Week 18",—
same,net SFC of vaccine positive CTL responses,"central memory T cells [2]; colon patient 602, Week 9",—
same,net SFC of vaccine positive CTL responses,"central memory T cells [2]; colon patient 602, Week 18",—
same,net SFC of vaccine positive CTL responses,"central memory T cells [2]; colon patient 603, Week 9",—
same,net SFC of vaccine positive CTL responses,"central memory T cells [2]; colon patient 603, Week 18",—
same,net SFC of vaccine positive CTL responses,"central memory T cells [2]; colon patient 604, Week 9",—
same,net SFC of vaccine positive CTL responses,"central memory T cells [2]; colon patient 604, Week 18",—
same,net SFC of vaccine positive CTL responses,"central memory T cells [2]; colon patient 605, Week 9",—
same,net SFC of vaccine positive CTL responses,"central memory T cells [2]; colon patient 605, Week 18",—
same,net SFC of vaccine positive CTL responses,"central memory T cells [2]; colon patient 606, Week 9",—
same,net SFC of vaccine positive CTL responses,"central memory T cells [2]; colon patient 606, Week 18",—
same,net SFC of vaccine positive CTL responses,"central memory T cells [2]; colon patient 607, Week 9",—
same,net SFC of vaccine positive CTL responses,"central memory T cells [2]; colon patient 607, Week 18",—
same,net SFC of vaccine positive CTL responses,"central memory T cells [2]; colon patient 608, Week 9","18.0 SFC per 50,000 cells"
same,net SFC of vaccine positive CTL responses,"central memory T cells [2]; colon patient 608, Week 18",—
same,net SFC of vaccine positive CTL responses,"central memory T cells [2]; colon patient 609, Week 9",—
same,net SFC of vaccine positive CTL responses,"central memory T cells [2]; colon patient 609, Week 18",—
same,% of patients with positive CTL/central memory T cell response,"central memory T cells [3]; phase 2, month 9",0%
same,patients with positive CTL/central memory T cell response / patients tested,"central memory T cells [3]; phase 2, month 9",0/7
same,% of patients with positive CTL/central memory T cell response,"central memory T cells [3]; phase 2, month 12",0%
same,patients with positive CTL/central memory T cell response / patients tested,"central memory T cells [3]; phase 2, month 12",0/4
same,% of patients with positive CTL/central memory T cell response,"central memory T cells [3]; phase 2, week 9",9%
same,patients with positive CTL/central memory T cell response / patients tested,"central memory T cells [3]; phase 2, week 9",1/11
same,% of patients with positive CTL/central memory T cell response,"central memory T cells [3]; phase 2, week 18",0%
same,patients with positive CTL/central memory T cell response / patients tested,"central memory T cells [3]; phase 2, week 18",0/11
same,% of patients with positive CTL/central memory T cell response,"central memory T cells [3]; phase 2, week 30",0%
same,patients with positive CTL/central memory T cell response / patients tested,"central memory T cells [3]; phase 2, week 30",0/6

# Reference: patent US11191820B2, “Method for inducing early T memory response with short peptides anti-tumor vaccine” (OSE IMMUNOTHERAPEUTICS, priority 2015, dated 2021)
